In the supplement of paper PMC4862054:
Where “and” joins values, the source holds several entries; their conditions need not be identical. Equal entries are not always repeated.

Legend:
Conditions in all cases: incubation time: 72 h
HCC1143 = assay: drug sensitivity score (DSS), CellTiter-Glo (DSS (AUC-based score)); higher = stronger drug effect (viability inhibition or cytotoxicity); extreme values may be limits of the assay
Procedure, shortened: (§1)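 Plates with 384 wells held compound at 5 concentrations in 10-fold steps over a 10,000-fold range specific to each compound. Breast cancer cell lines were added in 20 µl suspension and incubated 72 h, then read for CellTox Green and CellTiter-Glo signals, with each plate normalised to 0.1 % DMSO and a positive kill control. The drug sensitivity score is based on the area under the fitted dose-response curve.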

MDA-MB-468 = assay: as above
Procedure, shortened: as §1

BT-474 = assay: as above
Procedure, shortened: as §1

MFM-223 = assay: as above
Procedure, shortened: as §1

MDA-MB-231 = assay: as above
Procedure, shortened: as §1

CAL-120 = assay: as above
Procedure, shortened: as §1

HCC1599 = assay: as above
Procedure, shortened: as §1

CAL-148 [1] = assay: as above
Procedure, shortened: as §1

CAL-85-1 [2] = assay: as above
Procedure, shortened: as §1

CAL-51 [3] = assay: as above
Procedure, shortened: as §1

MCF-10A = assay: as above
Procedure, shortened: as §1

Hs578T = assay: as above
Procedure, shortened: as §1

DU-4475 [4] = assay: as above
Procedure, shortened: as §1

BT-549 = assay: as above
Procedure, shortened: as §1

MDA-MB-436 [5] = assay: as above
Procedure, shortened: as §1

HCC1937 = assay: as above
Procedure, shortened: as §1

SK-BR-3 = assay: as above
Procedure, shortened: as §1

HDQ-P1 [6] = assay: as above
Procedure, shortened: as §1

MDA-MB-453 [7] = assay: as above
Procedure, shortened: as §1

CAL-148 [8] = assay: normalised viability (% of control), CellTiter-Blue; higher = more viable cells (about 100 = DMSO control)
Protocol: (§2)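 DSRT, CellTiter-Blue viability, 72 h incubation. Signal is normalised to DMSO and benzethonium chloride controls. Value is the normalised response at dose 6.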

CAL-85-1 [9] = assay: as above
Protocol: as §2

CAL-51 [10] = assay: as above
Protocol: as §2

DU-4475 [11] = assay: as above
Protocol: as §2

HDQ-P1 [12] = assay: as above
Protocol: as §2

MDA-MB-453 [13] = assay: as above
Protocol: as §2

MDA-MB-436 [14] = assay: normalised viability (% of control), CellTiter-Blue; higher = more viable cells (about 100 = DMSO control)
Procedure, shortened: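 Seeded at 20 µl suspension per well onto compound-loaded 384-well plates, breast cancer cell lines were incubated 72 h. CellTiter-Blue fluorescence at 560/590 nm was then read, with each plate normalised to vehicle (100) and a positive kill control (0). Normalised viability is reported at a single listed concentration of the series.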

| SMILES | drug sensitivity score (HCC1143) | drug sensitivity score (MDA-MB-468) | drug sensitivity score (BT-474) | drug sensitivity score (MFM-223) | drug sensitivity score (MDA-MB-231) | drug sensitivity score (CAL-120) | drug sensitivity score (HCC1599) | drug sensitivity score (CAL-148 [1]) | drug sensitivity score (CAL-85-1 [2]) | drug sensitivity score (CAL-51 [3]) | drug sensitivity score (MCF-10A) | drug sensitivity score (Hs578T) | drug sensitivity score (DU-4475 [4]) | drug sensitivity score (BT-549) | drug sensitivity score (MDA-MB-436 [5]) | drug sensitivity score (HCC1937) | drug sensitivity score (SK-BR-3) | drug sensitivity score (HDQ-P1 [6]) | drug sensitivity score (MDA-MB-453 [7]) | normalised viability (CAL-148 [8]; 30 nM) | normalised viability (CAL-85-1 [9]; 30 nM) | normalised viability (CAL-51 [10]; 30 nM) | normalised viability (DU-4475 [11]; 30 nM) | normalised viability (HDQ-P1 [12]; 30 nM) | normalised viability (MDA-MB-453 [13]; 30 nM) | normalised viability (MDA-MB-436 [14]; 100 nM) | normalised viability (CAL-148 [8]; 3000 nM) | normalised viability (CAL-85-1 [9]; 3000 nM) | normalised viability (CAL-51 [10]; 3000 nM) | normalised viability (DU-4475 [11]; 3000 nM) | normalised viability (HDQ-P1 [12]; 3000 nM) | normalised viability (MDA-MB-453 [13]; 3000 nM) | normalised viability (MDA-MB-436 [14]; 10000 nM) |
| --- | --- | --- | --- | --- | --- | --- | --- | --- | --- | --- | --- | --- | --- | --- | --- | --- | --- | --- | --- | --- | --- | --- | --- | --- | --- | --- | --- | --- | --- | --- | --- | --- | --- |
| Nc1ncnc2c1c(COc1cccc(Cl)c1)nn2C1CCOCC1 | 0 | 0 | 0 | 0 | 0 | 0 | 0 | 0 | 0 | 0 | 0 | 0 | 0 | 0.519 | 0 | 0 | 0 | 0 | 0 |  |  |  |  |  |  |  |  |  |  |  |  |  |  |
| COc1ccccc1S(=O)(=O)Nc1ccc2c(c1)CN(C)C(=O)N2 [PFI-1] | 0 | 0 | 0 | 1.13 | 1.83 | 2.01 | 0 | 0 | 3.01 | 3.76 | 1.98 | 4.98 | 0.973 | 5.52 | 1.33 | 0 | 0 | 0 | 4.63 |  |  |  |  |  |  |  |  |  |  |  |  |  |  |
| Cn1c(=O)n(-c2ccc(C(C)(C)C#N)cc2)c2c3cc(-c4cnc5ccccc5c4)ccc3ncc21 [Dactolisib] | 12.7 | 13.2 | 9.24 | 13.4 | 11.7 | 17.9 | 2.8 | 14.6 | 15.3 | 16.8 | 9.78 | 14.9 | 11.4 | 18.6 | 11.8 | 9.76 | 16.2 | 10.7 | 14.7 |  |  |  |  |  |  |  |  |  |  |  |  |  |  |
| CC(C)c1c(C(=O)Nc2ccccc2)c(-c2ccccc2)c(-c2ccc(F)cc2)n1CC[C@@H](O)C[C@@H](O)CC(=O)O [Atorvastatin] | 1.92 | 4.08 | 8.43 | 0 | 10.1 | 4.42 | 0 | 0 | 3.85 | 6.03 | 7.2 | 1.59 | 0 | 0 | 0 | 1 | 0 | 5.79 | 0.00416 |  |  |  |  |  |  |  |  |  |  |  |  |  |  |
| CO[C@H]1C[C@@H]2CC[C@@H](C)[C@@](O)(O2)C(=O)C(=O)N2CCCC[C@H]2C(=O)O[C@H]([C@H](C)C[C@@H]2CC[C@@H](OCCO)[C@H](OC)C2)CC(=O)[C@H](C)/C=C(\C)[C@@H](O)[C@@H](OC)C(=O)[C@H](C)C[C@H](C)/C=C/C=C/C=C/1C [Everolimus] | 8.31 | 16 | 3.02 | 10.8 | 0 | 8.8 | 0 | 13.4 | 10.6 | 9.8 | 0 | 9.44 | 6.44 | 13 | 5.1 | 8.95 | 12.7 | 3.41 | 10 | 42.9% and 41.6% | 61.6% and 56.1% | 39.1% and 41.5% | 50.6% and 60.2% | 38.7% and 49% | 30.5% and 29.2% |  |  |  |  |  |  |  |  |
| Cn1c(=O)n(-c2ccc(C(C)(C)C#N)cc2)c2c3cc(-c4cnc5ccccc5c4)ccc3ncc21 [NVP-BEZ235] |  |  |  |  |  |  |  |  |  |  |  |  |  |  |  |  |  |  |  | 32.4% | 47.8% | 29.5% | 65.2% | 39.8% | 21.9% | 68.2% |  |  |  |  |  |  |  |
| Cc1cc2c(C(C)C)c(O)c(O)c(C=O)c2c(O)c1-c1c(C)cc2c(C(C)C)c(O)c(O)c(C=O)c2c1O [Gossypol] |  |  |  |  |  |  |  |  |  |  |  |  |  |  |  |  |  |  |  |  |  |  |  |  |  |  | 114% | 80.2% | 96.6% | 49.2% | 105% | 62.9% | 14.9% |
| NS(=O)(=O)OC[C@@H]1C[C@@H](n2ccc3c(N[C@H]4CCc5ccccc54)ncnc32)C[C@@H]1O [Pevonedistat] | 8.48 | 17.8 | 7.25 | 9.97 | 6.52 | 7.98 | 14 | 0 | 11.9 | 22.8 | 0 | 5.18 | 22.5 | 15.3 | 14.2 | 2.78 | 21.7 | 2.51 | 3.83 |  |  |  |  |  |  |  |  |  |  |  |  |  |  |
| Nc1nc(OCc2cc(Br)cs2)c2[nH]cnc2n1 [Lomeguatrib] | 0 | 0 | 0 | 0 | 0 | 0 | 0 | 0 | 0 | 0 | 0 | 0 | 0 | 0 | 0 | 0 | 0 | 0 | 0 |  |  |  |  |  |  |  |  |  |  |  |  |  |  |
